{"source": "patent US20120165310A1", "about": "“ETHER DERIVATIVES OF BICYCLIC HETEROARYLS” (NOVARTIS AG, priority 2009, published 2012)"}
{"target": "T1, IGF-1R (Homo sapiens, UniProt P08069)", "T1 construct": "expressed in transfected cells; host or cells: Hek293 (Hek293-IGF1R)", "T1 sequence (P08069 31-1367)": "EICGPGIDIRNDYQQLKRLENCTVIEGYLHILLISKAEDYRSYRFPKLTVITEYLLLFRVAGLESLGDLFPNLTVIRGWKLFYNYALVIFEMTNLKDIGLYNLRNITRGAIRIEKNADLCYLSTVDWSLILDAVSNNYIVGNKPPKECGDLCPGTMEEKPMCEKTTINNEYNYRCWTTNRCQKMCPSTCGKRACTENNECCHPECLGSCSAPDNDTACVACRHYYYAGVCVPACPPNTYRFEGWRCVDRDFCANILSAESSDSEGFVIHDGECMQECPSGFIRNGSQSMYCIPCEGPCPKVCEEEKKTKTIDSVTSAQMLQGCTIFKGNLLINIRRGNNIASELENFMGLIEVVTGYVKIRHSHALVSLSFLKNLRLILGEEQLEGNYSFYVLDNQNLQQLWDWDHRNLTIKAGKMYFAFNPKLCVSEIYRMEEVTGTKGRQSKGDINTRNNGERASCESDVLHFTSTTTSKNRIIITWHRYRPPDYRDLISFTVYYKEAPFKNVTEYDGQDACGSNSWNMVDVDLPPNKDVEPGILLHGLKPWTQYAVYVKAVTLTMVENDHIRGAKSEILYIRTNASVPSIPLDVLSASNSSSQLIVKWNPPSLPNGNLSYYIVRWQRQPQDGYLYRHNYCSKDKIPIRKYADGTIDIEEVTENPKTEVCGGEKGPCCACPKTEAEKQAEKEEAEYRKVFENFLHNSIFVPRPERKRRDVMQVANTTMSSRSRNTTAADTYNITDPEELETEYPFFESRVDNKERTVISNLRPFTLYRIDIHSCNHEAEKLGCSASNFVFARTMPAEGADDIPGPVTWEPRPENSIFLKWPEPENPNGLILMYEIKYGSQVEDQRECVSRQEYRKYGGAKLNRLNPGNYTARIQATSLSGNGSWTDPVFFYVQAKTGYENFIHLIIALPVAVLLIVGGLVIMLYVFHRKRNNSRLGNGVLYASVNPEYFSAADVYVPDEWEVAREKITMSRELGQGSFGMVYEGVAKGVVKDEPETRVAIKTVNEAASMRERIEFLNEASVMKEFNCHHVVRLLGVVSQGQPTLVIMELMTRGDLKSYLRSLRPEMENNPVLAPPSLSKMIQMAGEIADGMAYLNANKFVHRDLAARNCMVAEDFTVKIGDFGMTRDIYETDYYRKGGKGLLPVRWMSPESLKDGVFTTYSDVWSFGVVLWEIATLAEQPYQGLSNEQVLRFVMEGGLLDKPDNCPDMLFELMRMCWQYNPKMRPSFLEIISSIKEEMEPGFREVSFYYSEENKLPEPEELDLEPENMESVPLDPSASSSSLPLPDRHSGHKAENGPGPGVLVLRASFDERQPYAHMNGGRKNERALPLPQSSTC", "test": "Cellular IGF-1R assay: capture ELISA (MSD) of receptor phosphorylation in Hek293 cells", "format": "cell-based", "conditions": "Hek293-IGF1R cells, 1 h pre-incubation, 10 min IGF stimulation, pIGF1R capture ELISA", "description": "(§1) In this assay the activity of the compounds of the invention against Insulin-like growth factor I (IGF-I) induced autophosphorylation of the IGF-IR was determined. The assay was conducted as follows: Compound-mediated inhibition of IGF1R and INSR phosphorylation in Hek293 cells transduced with the corresponding receptors was assessed in a capture ELISA format using the MSD (Meso Scale Discovery) platform. Briefly, 30,000 cells washed and diluted in starvation medium (DMEM high glucose supplemented with 0.1% BSA) were seeded in 90 μL per well into 96-well plates pre-coated with poly-D-lysine (0.1 mg/mL in PBS/O). After 24 h incubation at 37° C. and 5% CO2, dose-response effects were determined with 3-fold serial compound dilutions, starting at 10 μM. The final vehicle concentration is 0.1% DMSO in all wells. Following pre-incubation with compounds for 1 h, receptor phosphorylation was triggered by a 10 min exposure to 1.0 ng/μL IGF for Hek293-IGF1R cells, and 5.0 ng/μL insulin for Hek293-InsR cells. Cell lysis was achieved by addition of 80 μL MSD lysis buffer per aspirated well, incubation on ice for 20 min, and a freeze-thaw cycle. Target phosphorylation was then assessed by transferring volumes corresponding to approx. 6 μg Hek293-IGF1R or 0.6 μg Hek293-InsR lysates to MSD assay plates pre-coated with total-IGF1R or total-InsR Abs, respectively. […] Immune complexes were detected by a SULFO-Tag™-coupled anti-rabbit IgG antibody in the presence of 150 μL MSD read-buffer. Light emission at 620 nm triggered by application of electric current was recorded on a MSD Sectorlmager 6000. Acquired raw data (mean Ru-ECL units) were processed in an Excel analysis template. The plate blank (MSD lysis buffer) was subtracted from all data points. The effect of a particular test compound concentration on receptor phosphorylation was expressed relative to the window defined by ligand-stimulated vs unstimulated control cells (set as 100%). IC50 values [nM] were determined using 4-parametric curve-fitting (XLfit software, V4.3.2).\nas §1, with “Compound-mediated” for “In this assay the activity of the compounds of the invention against Insulin-like growth factor I (IGF-I) induced autophosphorylation of the IGF-IR was determined. The assay was conducted as follows: Compound-mediated”, “cells trans-duced” for “cells transduced”, “receptors were” for “receptors was”, “concentration was” for “concentration is”, “for Hek293-IGF1 R” for “for Hek293-IGF1R”, “with total-IGF1 R” for “with total-IGF1R”", "units": {"IC50": "µM"}}
{"molecule": "Nc1ncnc2c1c(-c1cccc(OCC34CCC(CC3)O4)c1)cn2[C@H]1CC[C@@H](CN2CCNCC2)CC1", "note": "[Example 136, 5-(3-(7-oxabicyclo[2.2.1]heptan-1-ylmethoxy)phenyl)-7-((1S,4S)-4-(piperazin-1-ylmethyl)cyclohexyl)-7H-pyrrolo[2,3-d]pyrimidin-4-amine]", "IC50": 0.597}
{"molecule": "CC1(C)CN(CC2CC(n3cc(-c4cccc(OCC5CCCCO5)c4)c4c(N)ncnc43)C2)[C@H](C(N)=O)CO1", "note": "(stereo partly drawn) [Example 98, (3S)-4-((3-(4-amino-5-(3-((tetrahydro-2H-pyran-2-yl)methoxy)phenyl)-7H-pyrrolo[2,3-d]pyrimidin-7-yl)cyclobutyl)methyl)-6,6-dimethylmorpholine-3-carboxamide]", "IC50": 0.028}
{"molecule": "Nc1ncnc2c1c(-c1cccc(OCC34CCC(CC3)O4)c1)cn2C1CCC(c2cnco2)CC1", "note": "[Example 150, 5-(3-(7-oxabicyclo[2.2.1]heptan-1-ylmethoxy)phenyl)-7-((1S,4S)-4-(oxazol-5-yl)cyclohexyl)-7H-pyrrolo[2,3-d]pyrimidin-4-amine]", "IC50": 0.335}
{"molecule": "Nc1ncnc2c1c(-c1cccc(OCC34CCC(CC3)O4)c1)cn2[C@H]1C[C@](O)(CN2CC(O)C2)C1", "note": "[Example 199, (Z)-1-(3-{4-Amino-5-[3-(7-oxa-bicyclo[2.2.1]hept-1-ylmethoxy)-phenyl]-pyrrolo[2,3-d]pyrimidin-7-yl}-1-hydroxy-cyclobutylmethyl)-azetidin-3-ol]", "IC50": 0.201}
{"molecule": "Nc1ncnc2c1c(-c1cccc(OCC34CCC(CC3)O4)c1)cn2C1CC(O)(CN2CCC(O)C2)C1", "note": "(single isomer, unassigned) [Example 204]", "IC50": 0.053}
{"molecule": "CC1(C)CN(C[C@H]2C[C@@H](n3cc(-c4cccc(OCC5CCCCO5)c4)c4c(N)ncnc43)C2)CCS1(=O)=O", "note": "(stereo partly drawn) [Example 105, 7-[cis-3-(2,2-Dimethyl-1,1-dioxo-1λ6-thiomorpholin-4-ylmethyl)-cyclobutyl]-5-[3-(tetrahydro-pyran-2-ylmethoxy)-phenyl]-7H-pyrrolo[2,3-d]pyrimidin-4-ylamine]", "IC50": 0.409}
{"molecule": "Nc1ncnc2c1c(-c1cccc(OC[C@@H]3CCCO3)c1)cn2[C@H]1C[C@@H](CN2CCS(=O)(=O)CC2)C1", "note": "[Example 4, cis-7-(3-[(1,1-dioxidothiomorpholin-4-yl)methyl]cyclobutyl}-5-{3-[(2S)-tetrahydrofuran-2-ylmethoxy]phenyl}-7H-pyrrolo[2,3-d]pyrimidin-4-amine]", "IC50": 0.036}
{"molecule": "CC1(C(N)=O)CCCN1CC1CC(n2cc(-c3cccc(OCC45CCC(CC4)O5)c3)c3c(N)ncnc32)C1", "note": "[Example 101, (S)-1-(((1S,3R)-3-(5-(3-(7-oxabicyclo[2.2.1]heptan-1-ylmethoxy)phenyl)-4-amino-7H-pyrrolo[2,3-d]pyrimidin-7-yl)cyclobutyl)methyl)-2-methylpyrrolidine-2-carboxamide]", "IC50": 0.008}
{"molecule": "Nc1ncnc2c1c(-c1cccc(OCC34CCC(CC3)O4)c1)cn2C1CCC(O)(CN2CCS(=O)(=O)CC2)CC1", "note": "(stereo not shown) [Example 149, 4-{4-Amino-5-[3-(7-oxa-bicyclo[2.2.1]hept-1-ylmethoxy)-phenyl]-pyrrolo[2,3-d]pyrimidin-7-yl}-1-(1,1-dioxo-1λ6-thiomorpholin-4-ylmethyl)-cyclohexanol]", "IC50": 0.464}
{"molecule": "NC(=O)[C@@H]1CCCN1C[C@H]1C[C@H](n2cc(-c3cccc(OCC4CCCCO4)c3)c3c(N)ncnc32)C1", "note": "(stereo partly drawn) [Example 38, (S)-1-(trans-3-{4-amino-5-[3-(tetrahydro-pyran-2-ylmethoxy)-phenyl]-pyrrolo[2,3-d]pyrimidin-7-yl}-cyclobutylmethyl)-pyrrolidine-2-carboxylic acid amide]", "IC50": 0.276}
{"molecule": "Nc1ncnc2c1c(-c1cccc(OCC3CCCCO3)c1)cn2[C@H]1C[C@@H](CN2CC[C@@H](O)C2)C1", "note": "(stereo partly drawn) [Example 33, (R)-1-(cis-3-{4-amino-5-[3-(tetrahydro-pyran-2-ylmethoxy)-phenyl]-pyrrolo[2,3-d]pyrimidin-7-yl}-cyclobutylmethyl)-pyrrolidin-3-ol]", "IC50": 0.235}
{"molecule": "Nc1ncnc2c1c(-c1cccc(OCC3CCCCO3)c1)cn2[C@H]1C[C@@H](CN2CC[C@H](O)C2)C1", "note": "(stereo partly drawn) [Example 34, (S)-1-(cis-3-{4-amino-5-[3-(tetrahydro-pyran-2-ylmethoxy)-phenyl]-pyrrolo[2,3-d]pyrimidin-7-yl}-cyclobutylmethyl)-pyrrolidin-3-ol]", "IC50": 0.333}
{"molecule": "CC(=O)NC[C@H]1C[C@@H](n2cc(-c3cccc(OCC45CCC(CC4)O5)c3)c3c(N)ncnc32)C1", "note": "[Example 178]", "IC50": "0.047 to 0.112"}
{"molecule": "NC(=O)[C@@H]1CCCN1C[C@H]1C[C@@H](n2cc(-c3cccc(OCC45CCC(CC4)O5)c3)c3c(N)ncnc32)C1", "note": "[Example 68, (S)-1-(cis-3-(4-amino-5-[3-(7-oxa-bicyclo[2.2.1]hept-1-ylmethoxy)-phenyl]-pyrrolo[2,3-d]pyrimidin-7-yl)-cyclobutylmethyl)-pyrrolidine-2-carboxylic acid amide]", "IC50": 0.012}
{"molecule": "Nc1ncnc2c1c(-c1cccc(OCC34CCC(CC3)O4)c1)cn2[C@H]1C[C@@]2(COC(=O)O2)C1", "note": "[Example 197, (E)-2-{4-Amino-5-[3-(7-oxa-bicyclo[2.2.1]hept-1-ylmethoxy)-phenyl]-pyrrolo[2,3d]pyrimidin-7-yl}-5,7-dioxa-spiro[3.4]octan-6-one]", "IC50": 0.099}
{"molecule": "Nc1ncnc2c1c(-c1cccc(OCC34CCC(CC3)O4)c1)cn2[C@H]1C[C@@H](O)C1", "note": "(relative stereo) [Example 221, cis-3-{4-amino-5-[3-(7-oxa-bicyclo[2.2.1]hept-1-ylmethoxy)-phenyl]-pyrrolo[2,3-d]pyrimidin-7-yl}cyclobutanol]", "IC50": 0.411}
{"molecule": "Nc1ncnc2c1c(-c1cccc(OCC3CCCO3)c1)cn2[C@H]1C[C@H](CN2CCS(=O)(=O)CC2)C1", "note": "(relative stereo) [Example 89, 7-[trans-3-(1,1-Dioxothiomorpholin-4-ylmethyl)-cyclobutyl]-5-[3-(tetrahydro-furan-2-ylmethoxy)-phenyl]-7H-pyrrolo[2,3-d]pyrimidin-4-ylamine]", "IC50": 0.316}
{"molecule": "CC1(C)CCC(COc2cccc(-c3cn([C@H]4C[C@@H](CN5CCS(=O)(=O)CC5)C4)c4ncnc(N)c34)c2)O1", "note": "(single isomer, unassigned) [Example 66]", "IC50": "< 0.004"}
{"molecule": "7-[cis-3-(2-hydroxymethyl-imidazol-1-ylmethyl)-cyclobutyl]-53-(7-oxa-bicyclo[2.2.1]hept-1-ylmethoxy)--phenyl]-7H-pyrrolo[2,3-d]pyrimidin-4-ylamine [Example 176]", "IC50": 0.149}
{"molecule": "CN(C)[C@H]1CC[C@H](n2cc(-c3cccc(OCC45CCC(CC4)O5)c3)c3c(N)ncnc32)CC1", "note": "(relative stereo) [Example 183, 7-(trans-4-Dimethylamino-cyclohexyl)-5-[3-(7-oxa-bicyclo[2.2.1]hept-1-ylmethoxy)-phenyl]-7H-pyrrolo[2,3-d]pyrimidin-4-ylamine]", "IC50": 0.088}
{"molecule": "COC(=O)NC[C@]1(O)C[C@H](n2cc(-c3cccc(OCC45CCC(CC4)O5)c3)c3c(N)ncnc32)C1", "note": "[Example 218, (E)-(3-{4-Amino-5-[3-(7-oxa-bicyclo[2.2.1]hept-1-ylmethoxy)-phenyl]-pyrrolo[2,3-d]pyrimidin-7-yl}-1-hydroxy-cyclobutylmethyl)-carbamic acid methyl ester]", "IC50": 0.404}
{"molecule": "Nc1ncnc2c1c(-c1cccc(OCC34CCC(CC3)O4)c1)cn2[C@H]1C[C@@H](CN2CCC(O)CC2)C1", "note": "(relative stereo) [Example 184, 1-(cis-3-{4-Amino-5-[3-(7-oxa-bicyclo[2.2.1]hept-1-ylmethoxy)-phenyl]-pyrrolo[2,3-d]pyrimidin-7-yl}-cyclobutylmethyl)-piperidin-4-ol]", "IC50": 0.009}
